Experimental findings from patent publication EP4570798A1, “AROMATIC HETEROCYCLIC CYCLOHEXYL AMINOALKYL PIPERIDINE DERIVATIVE, PREPARATION METHOD AND USE THEREOF” (Jiangsu NHWA Pharmaceutical Co., Ltd, priority 2022, dated 2024) are described below.

Values joined by “and” are separate entries in the source; they are usually repeats but may differ in a detail not shown here. Equal values may be shown once.

The nature of data set [1]: In vitro liver microsome stability, CD-1 mouse. The conditions noted are these: for CLint scaled at 1 µM / half-life at 1 µM / microsomal CLint at 1 µM: CD-1, mouse, liver microsomes, pH 7.4; for CLint(liver): CD-1 mouse liver microsomes.
Protocol: (§1) • (1) Buffer preparation: 73.21 g of dipotassium hydrogen phosphate trihydrate and 10.78 g of potassium dihydrogen phosphate were dissolved in 4000 mL of ultrapure water. The pH of the solution was adjusted to within 7.40 ± 0.10 using 10% phosphoric acid or 1 M potassium hydroxide, resulting in a final concentration of 100 mM. • (2) Solution preparation and dilution: Stock solutions of the test compounds at a concentration of 10 mM were prepared in dimethyl sulfoxide (DMSO) and stored at 4 °C, and they were diluted into 100 µM working solutions with pure acetonitrile when used. A stock solution of the control compound testosterone at a concentration of 10 mM was prepared in DMSO and stored at -20 °C, and it was diluted into a 400 µM working solution with pure acetonitrile when used. • (3) Termination solution preparation: The termination solution was acetonitrile containing the internal standard buspirone. The prepared termination solution was stored in a refrigerator at 2-8 °C. • (4) Liver microsome solution preparation: Microsomes from various species (CD-1 mouse, SD rat, and human) were diluted into a 20× working solution using 100 mM potassium phosphate buffer. The final concentration of the microsomes in the reaction system was 0.5 mg/mL. • (5) Reduced nicotinamide adenine dinucleotide phosphate (NADPH) regeneration system preparation: Appropriate amounts of nicotinamide adenine dinucleotide phosphate (NADP), glucose-6-phosphate (G6P), magnesium chloride (MgCl2), and glucose-6-phosphate dehydrogenase (G6PDH) were weighed to prepare stock solutions at concentrations of 65.33 mM, 330 mM, 300 mM, and 250 Units/mL, respectively. The four stock solutions described above were each added to an appropriate amount of buffer, and the mixture was mixed well by gently inverting up and down. […] Several incubation plates were prepared and named T0, T5, T10, T20, T40, T60, PB60, and NCF60, respectively. […] The NCF60 plate was incubated for 60 min with potassium phosphate buffer replacing the NADPH regeneration system solution. The PB60 plate was incubated for 60 min with potassium phosphate buffer replacing the liver microsomes. Samples under all conditions were prepared in triplicate.
(§2) 2 µL of the test compound or control compound and 100 µL of microsome working solution (containing 1 mg/mL liver microsome protein) were added to each of the T0, T5, T10, T20, T40, T60, and NCF60 plates, and 2 µL of the test compound and 100 µL of potassium phosphate buffer were added to the PB60 plate. The plates described above were then pre-incubated in a 37 °C water bath for about 5 min.
(§3) After the pre-incubation, 600 µL of the termination solution was first added to the T0 samples, followed by the addition of 98 µL of NADPH regeneration system working solution. The plate was sealed, shaken, and then allowed to wait for simultaneous processing with subsequent samples. Except for the NCF60 plate where 98 µL of potassium phosphate buffer was added to each sample well, 98 µL of NADPH regeneration system working solution was added to each sample well of the other incubation plates to initiate the reaction. In the reaction system, the final concentrations of the test compound and the control compound were 1 µM and 4 µM, respectively, the concentration of the liver microsomes was 0.5 mg/mL, and the final concentrations of DMSO and acetonitrile were 0.01% (v/v) and 0.99% (v/v), respectively.
(§4) After incubation for an appropriate time (such as 5, 10, 20, 40, and 60 min), 600 µL of the termination solution containing the internal standard was added to each test compound sample and control compound well to terminate the reaction. The plates were sealed, shaken well, and then centrifuged at 4000 ×g and 4 °C for 15 min.
Data set [2] concerns the target T1, Dopamine D3 receptor (Homo sapiens, UniProt P35462).
T1 construct: expressed in transfected cells; host or cells: CHO-K1
The data set can be described thus: In vitro dopamine D3 receptor function experiment (CHO-K1/D3/CRE reporter, chemiluminescence). It is filed as cell-based. The conditions noted are these: for EC50: forskolin 0.4 µM; for Emax: maximum activation rate. Here is the method:
3.1.1 Cell information: CHO-K1/D3/CRE constructed by referring to the method in Example 5 of CN114369578A.
The first day: cell plating • (1) The cultured cells were digested with trypsin, and after the digestion was terminated with culture medium, the cell suspension was transferred to a centrifuge tube and centrifuged at 750 rpm for 5 min. • (2) The supernatant was discarded, and the pellet was resuspended in an appropriate amount of plating medium.
The following day: experimental detection • (1) The test compounds were diluted to 0.2 mM with DMSO, and the reference compound dopamine was diluted to 0.02 mM. • (2) Compound dilution (4-fold dilution at 8 concentration points) was performed using Bravo, with the starting concentrations of the test compounds and the reference compound being 5 µM and 500 nM, respectively. […] The program selected was an ultrasensitive chemiluminescence detection program.

Data set [3] in a line: In vitro liver microsome stability, SD rat. The conditions noted are these: for CLint(liver): SD rat liver microsomes; for CLint scaled at 1 µM / half-life at 1 µM / microsomal CLint at 1 µM: SD, rat, liver microsomes, pH 7.4.
Protocol: as §1, §2, §3, §4
Data set [4] deals with T2, 5-HT1A (Homo sapiens, UniProt P08908).
T2 sequence (P08908 1-422): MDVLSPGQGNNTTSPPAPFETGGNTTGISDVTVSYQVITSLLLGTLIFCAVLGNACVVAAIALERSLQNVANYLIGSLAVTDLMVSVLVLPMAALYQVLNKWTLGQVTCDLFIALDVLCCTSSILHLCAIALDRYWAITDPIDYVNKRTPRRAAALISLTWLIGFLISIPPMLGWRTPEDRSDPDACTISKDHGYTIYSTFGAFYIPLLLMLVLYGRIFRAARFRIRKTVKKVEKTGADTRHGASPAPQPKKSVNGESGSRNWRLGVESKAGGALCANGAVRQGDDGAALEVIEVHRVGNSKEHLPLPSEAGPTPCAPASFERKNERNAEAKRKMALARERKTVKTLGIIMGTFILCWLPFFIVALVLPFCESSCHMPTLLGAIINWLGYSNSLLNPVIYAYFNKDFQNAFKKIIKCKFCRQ
The data set can be described thus: In vitro 5HT1A receptor function experiment (cAMP, forskolin-stimulated HEK293/5HT1A cells). It is filed as cell-based. Also on record: expressed in transfected cells; host or cells: HEK293. The conditions noted are these: for EC50: forskolin 1 µM; for Emax: maximum activation rate. As to the method:
1.1.1 Cell information: HEK293/5HT1A: a stably transfected cell strain HEK293/5HT1A constructed by adopting 5HT1A receptor lentivirus to infect HEK293; growth culture medium: DMEM, 10% FBS, and 0.6 µg/mL puro; and cryopreservation culture medium: 70% culture medium, 20% FBS, and 10% DMSO.

Data set [5] in a line: In vitro liver microsome stability, human. The conditions noted are these: for CLint(liver): Human liver microsomes; for CLint scaled at 1 µM / half-life at 1 µM / microsomal CLint at 1 µM: human, liver microsomes, pH 7.4.
Protocol: as §1, §2, §3, §4
The target of data set [6] is hERG potassium channel (Homo sapiens, UniProt Q12809). Briefly: In vitro hERG experiment (whole-cell patch clamp). It is filed as cell-based. The conditions noted are these: for IC50: whole-cell patch clamp, tail current, room temperature. Here is the method: Extracellular fluid: 140 mM NaCl, 3.5 mM KCl, 1 mM MgCl2, 2 mM CaCl2, 10 mM Glucose, 10 mM HEPES, and 1.25 mM NaH2PO4, with the pH adjusted to 7.4 by NaOH.
Under an inverted microscope, recording electrodes were controlled by a glass electrode micromanipulator (micromanipulation) to contact with the cell. A negative voltage was applied to form a GΩ seal. After forming the GΩ seal, a rapid capacitance compensation was given. Under the continuous negative voltage, the cell membrane was ruptured to establish a whole-cell recording mode. In the whole-cell recording mode, a slow capacitance compensation was given, and the values of membrane capacitance and series resistance were recorded.
Voltage stimulation scheme for cellular hERG potassium current: the cell membrane clamping voltage was -80 mV; the voltage was first elevated from -80 mV to +30 mV, held for 2.5 s, and rapidly changed to and held at -50 mV for 4 s, thus exciting the hERG channel tail current. Data were acquired every 10 s. Leak current detection was performed at -50 mV.
The coverslip with seeded cells was placed in the recording chamber of the inverted microscope. Negative control and test compounds flowed through the recording chamber in an ascending order of concentration by gravity perfusion to quickly act on the cells. During the recording, the extracellular fluid was continuously circulated by a vacuum pump. The current detected in a cell in the negative control was used as the background for the cell. Each compound concentration was allowed to act for 5 min or until the current was stabilized. All experiments were performed at room temperature.
The current of each compound concentration was first normalized according to (peak tail current compound)/(peak tail current vehicle), and then the corresponding inhibition rate was calculated according to (1 - (peak tail current compound)/(peak tail current vehicle)). Basic statistics were calculated for each concentration, including mean, standard deviation (SD), standard error (SE), and replicates (n). […] Curve fitting and calculation of IC50 were performed by GraphPad Prism 5.0 software.

For data set [7], the system named is tacrine-induced jaw tremors in rats. Briefly: Tacrine-induced jaw tremor behavior in rats. It is filed as in vivo, Sprague Dawley rats. The conditions noted are these: for Inhibition of tacrine-induced jaw tremors in rats: compared to the model group; for Minimum effective dose: tacrine-induced jaw tremor in rats, compared with rotigotine. Here is the method:
Test compounds: The free bases of Examples 28, 32, and 33 in the present invention, which were self-prepared.
Positive control compound: Rotigotine.
Molding drug: Tacrine, SIGMA, A3773-1G.
Vehicle: Normal saline, Cisen Pharmaceutical Co., Ltd., 2111060723.
Sprague Dawley rats, male, 10/group, Shanghai Slac Laboratory Animal Co., Ltd.
Drug preparation: The test compound was taken, added to the vehicle, and subjected to ultrasonication.
Administration route and method: Administration was performed by intraperitoneal injection.
Administration frequency and duration: single administration.
The rats were stratified according to body weight and then randomly divided into a model group, an administration group, and a control group. The rats were acclimatized for three days before the experiment. On the day of the experiment, the vehicle or drug was first injected intraperitoneally, followed by an intraperitoneal injection of tacrine at a dose of 5 mg/kg (body weight) after 60 min. After administration, the rats were placed in a transparent observation box, and the jaw tremor counting was started 10 min later. The continuous counting duration was 5 min, and the jaw tremor frequency in the rats within 5 min was recorded.
The experimental data were expressed as x ± SEM. Inhibition rate (%) = 100% × (jaw tremor frequency in the rats of the model group - jaw tremor frequency in the rats of the administration group)/jaw tremor frequency in the rats of the model group, where *: p < 0.05, **: p < 0.01, and ***: p < 0.001 vs vehicle.

[8] abbreviates: 1 mg/kg, 3 mg/kg, and 10 mg/kg, intraperitoneal, single administration, free base.

T1 sequence (P35462 whole entry, species assumed): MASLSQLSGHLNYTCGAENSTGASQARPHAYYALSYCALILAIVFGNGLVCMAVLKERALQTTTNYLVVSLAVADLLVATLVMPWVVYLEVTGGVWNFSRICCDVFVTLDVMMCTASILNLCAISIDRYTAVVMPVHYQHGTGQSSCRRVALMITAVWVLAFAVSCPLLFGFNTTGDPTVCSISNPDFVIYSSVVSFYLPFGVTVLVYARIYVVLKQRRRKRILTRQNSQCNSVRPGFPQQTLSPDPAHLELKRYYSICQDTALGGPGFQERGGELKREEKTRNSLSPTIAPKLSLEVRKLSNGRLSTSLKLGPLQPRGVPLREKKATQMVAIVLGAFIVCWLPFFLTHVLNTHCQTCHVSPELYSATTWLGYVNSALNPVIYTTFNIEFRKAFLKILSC
Sequence of hERG potassium channel (Q12809 whole entry): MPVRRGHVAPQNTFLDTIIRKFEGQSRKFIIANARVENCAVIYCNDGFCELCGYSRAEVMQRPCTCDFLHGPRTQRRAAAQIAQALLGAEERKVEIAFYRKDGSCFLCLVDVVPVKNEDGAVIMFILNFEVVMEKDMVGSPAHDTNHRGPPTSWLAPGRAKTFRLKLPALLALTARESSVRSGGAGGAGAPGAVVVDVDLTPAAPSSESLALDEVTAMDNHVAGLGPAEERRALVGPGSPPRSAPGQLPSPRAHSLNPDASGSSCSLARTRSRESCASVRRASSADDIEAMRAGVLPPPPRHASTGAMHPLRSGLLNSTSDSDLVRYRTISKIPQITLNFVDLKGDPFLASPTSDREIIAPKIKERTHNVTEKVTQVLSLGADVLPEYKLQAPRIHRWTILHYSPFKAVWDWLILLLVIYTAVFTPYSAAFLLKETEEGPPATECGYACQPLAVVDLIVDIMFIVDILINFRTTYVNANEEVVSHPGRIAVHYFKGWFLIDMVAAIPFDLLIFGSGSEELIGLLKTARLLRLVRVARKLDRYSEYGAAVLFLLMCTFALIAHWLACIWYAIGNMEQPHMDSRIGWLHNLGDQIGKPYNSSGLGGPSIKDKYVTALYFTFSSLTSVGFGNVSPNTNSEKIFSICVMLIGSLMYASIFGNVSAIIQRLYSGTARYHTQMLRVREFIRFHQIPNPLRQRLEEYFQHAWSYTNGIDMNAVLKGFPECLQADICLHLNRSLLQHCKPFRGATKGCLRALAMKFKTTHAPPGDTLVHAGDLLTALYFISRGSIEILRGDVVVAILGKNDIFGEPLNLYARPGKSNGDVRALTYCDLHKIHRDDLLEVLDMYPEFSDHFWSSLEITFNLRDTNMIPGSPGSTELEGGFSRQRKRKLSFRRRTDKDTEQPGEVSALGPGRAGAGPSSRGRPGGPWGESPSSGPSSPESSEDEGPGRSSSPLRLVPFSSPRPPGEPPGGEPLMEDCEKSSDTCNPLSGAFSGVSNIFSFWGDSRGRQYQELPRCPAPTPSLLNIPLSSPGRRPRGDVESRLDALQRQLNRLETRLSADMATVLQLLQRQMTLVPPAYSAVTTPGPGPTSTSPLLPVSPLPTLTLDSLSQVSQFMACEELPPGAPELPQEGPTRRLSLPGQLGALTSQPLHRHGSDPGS

As for `CCCN(CC1CCN(c2cccc3sccc23)CC1)[C@H]1CCc2nc(N)sc2C1` [Example 9, (S)-N^6-((1-(Benzo[b]thiophen-4-yl)piperidin-4-yl)methyl)-N^6-propyl-4,5,6,7-tetrahydrobenzo[d]thiazole-2,6-diamine], in data set [1], the intrinsic metabolic clearance (CLint scaled) at 1 µM fell in the range of 38.6 to 210 mL/min/kg, the half-life at 1 µM is 0.47 h, the microsomal CLint at 1 µM amounted to 49.1 µL/min/mg and the “CLint(liver)” value is given as 194.5 mL/min/K g. In data set [2], the concentration for a half-maximal effect (EC50) worked out at 2.1 nM and the Emax stood at 111%. In addition, in data set [3], the “CLint(liver)” value is 89.1 mL/min/K g, the intrinsic clearance (CLint scaled) at 1 µM was in the range of 23.7 to 129 mL/min/kg, the half-life at 1 µM came to 0.467 h and the microsomal CLint at 1 µM is 49.5 µL/min/mg. In data set [4], this compound showed a concentration giving a half-maximal response (EC50) of 30.2 nM and a maximum response (Emax) of 101%. Moreover, in data set [5], the “CLint(liver)” value stood at 33.4 mL/min/K g, the CLint scaled at 1 µM is 8.9 to 48.3 mL/min/kg, the half-life at 1 µM amounted to 0.623 h and the intrinsic clearance (microsomal CLint) at 1 µM came to 37.1 µL/min/mg.
In the case of `CCCN(CC1CCN(C(=O)N2CCOCC2)CC1)[C@H]1CCc2nc(N)sc2C1` [Example 33, (S)-(4-(((2-Amino-4,5,6,7-tetrahydrobenzo[d]thiazol-6-yl)(propyl)amino)methyl)piperidin-1-yl)(morpholino)methanone], in data set [1], the intrinsic metabolic clearance (CLint scaled) at 1 µM fell in the range of 38.6 to 210 mL/min/kg, the intrinsic metabolic clearance (microsomal CLint) at 1 µM was 12.6 µL/min/mg and the “CLint(liver)” value worked out at 50.0 mL/min/K g. Moreover, in data set [2], the EC50 was determined as 1.1 nM and the Emax was 107%. Moreover, the “hERG inhibition: functional activity lower than that of the pharmacodynamic target” value in data set [6] (hERG IC50 versus activity at pharmacodynamic target) is at least 1000 fold. Besides, the IC50 in data set [6] is 20000 nM and 20200 nM. Besides, in data set [3], the “CLint(liver)” value amounted to 27.3 mL/min/K g, the intrinsic clearance (CLint scaled) at 1 µM was in the range of 23.7 to 129 mL/min/kg, the half-life at 1 µM was found to be 1.52 h and the intrinsic clearance (microsomal CLint) at 1 µM was determined as 15.2 µL/min/mg. Also, the “Inhibition of tacrine-induced jaw tremors in rats” value (“Inhibition … in rats” for short) in data set [7] (setting [8]) is recorded as “significantly inhibited”. Moreover, the Minimum effective dose entry in data set [7] is “lower than that of the positive control drug”. In data set [4], this compound came in with an EC50 of 162 nM and an Emax of 92.7%. In data set [5], the “CLint(liver)” value was 2.6 mL/min/K g, the CLint scaled at 1 µM is below 8.9 mL/min/kg and the intrinsic clearance (microsomal CLint) at 1 µM came to 2.9 µL/min/mg.
Regarding `CCCN(CC1CCN(C(=O)c2ccco2)CC1)[C@H]1CCc2nc(N)sc2C1` [Example 25, (S)-(4-(((2-Amino-4,5,6,7-tetrahydrobenzo[d]thiazol-6-yl)(propyl)amino)methyl)piperidin-1-yl)(furan-2-yl)methanone], in data set [2], the EC50 was determined as 1.3 nM and the maximal response (Emax) was found to be 106%. In data set [4], this compound came in with a 50% effective concentration (EC50) of 41.9 nM and a maximum response (Emax) of 112%.
For the compound `CCCN(CC1CCN(C(=O)c2cnn(C)c2)CC1)[C@H]1CCc2nc(N)sc2C1` [Example 28, (S)-(4-(((2-Amino-4,5,6,7-tetrahydrobenzo[d]thiazol-6-yl)(propyl)amino)methyl)piperidin-1-yl)(1-methyl-1H-pyrazol-4-yl)methanone], in data set [1], the CLint scaled at 1 µM is below 38.6 mL/min/kg, the half-life at 1 µM turned out to be 6.57 h, the intrinsic metabolic clearance (microsomal CLint) at 1 µM worked out at 13.9 µL/min/mg and the “CLint(liver)” value is 13.4 mL/min/K g. Further, the IC50 in data set [6] was 20000 nM and 23300 nM. Besides, in data set [3], the “CLint(liver)” value is 2.7 mL/min/K g, the CLint scaled at 1 µM is below 23.7 mL/min/kg, the half-life at 1 µM came out at 14.8 h and the microsomal CLint at 1 µM was found to be 2.8 µL/min/mg. For the same compound, the “Inhibition … in rats” value in data set [7] (setting [8]) is recorded as “significantly inhibited”. Besides, the Minimum effective dose entry in data set [7] is “lower than that of the positive control drug”. For the same compound, in data set [4], the EC50 was found to be 122 nM and the maximal effect (Emax) amounted to 103%. In data set [5], the “CLint(liver)” value came to 1.0 mL/min/K g, the intrinsic metabolic clearance (CLint scaled) at 1 µM was below 8.9 mL/min/kg, the half-life at 1 µM is 19.7 h and the microsomal CLint at 1 µM came out at 1.1 µL/min/mg.
In the case of `CCCN(CC1CCN(C(=O)c2ccccc2)CC1)[C@H]1CCc2nc(N)sc2C1` [Example 17, (S)-(4-(((2-Amino-4,5,6,7-tetrahydrobenzo[d]thiazol-6-yl)(propyl)amino)methyl)piperidin-1-yl)(phenyl)methanone], in data set [1], the CLint scaled at 1 µM fell in the range of 38.6 to 210 mL/min/kg, the half-life at 1 µM was found to be 1.33 h, the intrinsic metabolic clearance (microsomal CLint) at 1 µM was 17.4 µL/min/mg and the “CLint(liver)” value was found to be 68.8 mL/min/K g. In data set [2], this compound came in with a concentration giving a half-maximal response (EC50) of 1.1 nM and an Emax of 109%. Besides, in data set [3], the “CLint(liver)” value was found to be 76.9 mL/min/K g, the CLint scaled at 1 µM lay within 23.7 to 129 mL/min/kg, the half-life at 1 µM is 0.54 h and the microsomal CLint at 1 µM came to 42.7 µL/min/mg. For the same compound, in data set [4], the midpoint of the response, the EC50, lay at 51.6 nM and the Emax was found to be 114%. In addition, in data set [5], the “CLint(liver)” value is 27.7 mL/min/K g, the intrinsic metabolic clearance (CLint scaled) at 1 µM was 8.9 to 48.3 mL/min/kg, the half-life at 1 µM was 0.75 h and the microsomal CLint at 1 µM came to 30.8 µL/min/mg.
Consider `CCCN(CCc1cccs1)[C@H]1CCc2c(O)cccc2C1` [rotigotine, Rotigotine, reference compound], for which the “Inhibition … in rats” value in data set [7] (10 mg/kg, positive control) is “significantly inhibited”.
